{"source": "patent US9834525B2", "about": "“Inhibitors of paxillin function and related compositions and methods” (UNIVERSITY OF TENNESSEE RESEARCH FOUNDATION, priority 2015, dated 2017)", "assay_type_in_all_cases": "cell-based, human", "key": {"paxillin (pY118)": {"tested_on": "paxillin (pY118)", "assay": "Western blot of VEGF-induced paxillin Y118 phosphorylation in REC", "conditions": "REC under VEGF; compound (II-4) 500 nM, SU6656 1 μM", "protocol": "(§1) REC, Mel 270, OMM 2.5 under Hepatocyte Growth Factor (HGF) or Vascular Endothelial Growth Factor (VEGF) stimulation conditions: Cell lysates were collected in RIPA lysis buffer (50 mM Tris-HCl, pH 7.4, 150 mM NaCl, 2 mM EDTA, 1% Nonidet P-40, 0.1% SDS) with protease 1× inhibitor cocktail (Roche; Indianapolis, Ind.). Lysates were kept on ice and centrifuged at 10,000×g×10 minutes and total protein was measured using the BCA assay (Pierce, Rockford, Ill.). Protein samples were mixed with 4×LDS loading buffer with 2.5% 2-mercaptoethanol (Sigma-Aldrich), heated to 70° C. for 10 minutes, and loaded on NuPAGE 4-12% Bis-Tris gel (Invitrogen, Carlsbad, Calif.). Immunoblotting was performed with nitrocellulose membranes (Bio-Rad, Hercules, Calif.) at 170-mA start and 110-mA end at 25 V for two hours in NuPAGE transfer buffer (Invitrogen) containing 20% methanol. Membranes were blocked using Odyssey blocking buffer (LI-COR; Lincoln, Nebr.) for one hour at room temperature with gentle shaking Membranes were then incubated at 4° C. with specific primary antibodies (1:1000) overnight. Cellular protein was normalized using rabbit-GAPDH or mouse-α-Tubulin [1:20,000] (Cell Signaling, Danvers, Mass.; LI-COR, respectively). Secondary antibodies (IRDye 800CW goat anti-rabbit and IRDye 680LT goat anti-mouse) [1:10,000] were incubated in the dark at room temperature for 45 minutes. Dual-channel infrared scan and quantitation of immunoblots were conducted using the ODYSSEY Sa infrared imaging system with Image Studio (Ver. 3.1.4) (LI-COR).\nThe α4 subunit of the cytoplasmic tail of VLA-4 interacts with the cytoskeletal adaptor paxillin, merging intracellular signaling events that drive cellular proliferation and migration (FIG. 13). Compound (II-4) inhibits phosphorylation of paxillin at Y118 (pY118) in the LD-region that interacts with the α4 subunit of VLA-4. To confirm the inhibition of pY118 of paxillin after use of compound (II-4) retinal endothelial cells (REC) were activated with Vascular Endothelial Growth Factor (VEGF) at 50 ng/mL in the presence or absence (vehicle) of compound (II-4) at a concentration of […] for 4-hrs. […] VEGF-induced pY118 was prevented by treatment with compound (II-4) [VEGF-REC treatment versus untreated, *p<0.005; VEGF-induced versus compound (II-4) treatment, **p<0.05—FIG. 13C].\nTo gain insight into the mechanistic basis for this phenotype, the effect of compound (II-4) on the Src/FAK/paxillin/ERK signalsome in RECs under VEGF was examined. […] Next, characterization of the potential of compound (II-4) to affect FA disassembly through inactivation of ERK was explored. […]\nFIG. 13: Targeting the alpha-4 subunit of VLA-4 signaling through inhibition of paxillin. […] Phosphorylation measured by Western Blot. […]"}, "ERK1/2": {"tested_on": "ERK1/2", "assay": "Western blot of VEGF-induced ERK1/2 phosphorylation in REC", "conditions": "REC under VEGF; compound (II-4) 500 nM, SU6656 1 μM", "protocol": "as §1, with “Secondary antibodies (IRDye 800CW goat anti-rabbit and IRDye 680LT goat anti-mouse) [1:10,000] were incubated in the dark at room temperature for 45 minutes.” left out, “(LI-COR). […]” for “(LI-COR).”"}, "[1]": {"tested_on": "retinal endothelial cells (REC)", "assay": "VEGF-induced REC proliferation, WST-1 metabolic assay", "conditions": "Compound (II-4) (500 nM), LY294002 (1004), SU6656 (104), U0126 (104) [sic]", "protocol": "To investigate the potential of compound (II-4) affecting the proliferative capacity of RECs treated with VEGF, proliferation was measured using the metabolic assay based on the tetrazolium salt, WST-1. […] To rule out the possibility that this observation was related to cytotoxicity, RECs were incubated with a high concentration of compound (II-4) (1 μM) for 24 hours. Cells were harvested and apoptosis measured with Annexin-V/Propidium Iodide (PI) staining and analyzed using flow cytometry.\nFIG. 18: REC Proliferation and Flow cytometry analysis of apoptosis in REC. A) VEGF-induced cellular proliferation was assessed using the WST-1 metabolic assay. […] (*P<0.0001). Nuclei were stained with DRAQ5 and imaged to show trend of decreasing proliferation. B) Apoptosis was measured using Annexin V/PI staining Compound (II-4) (1 μM) appears to be non-cytotoxic to retinal endothelial cells after 24 hour incubation (n≈10,000 cells).\nFIG. 21: REC Proliferation. […] (*, # P<0.001; Mean±SD, N=8/group)."}, "AKT (Ser473)": {"tested_on": "AKT (Ser473)", "assay": "Western blot of VEGF-induced AKT phosphorylation in REC", "conditions": "REC under VEGF; compound (II-4) 500 nM, SU6656 1 μM", "protocol": "as §1, with “Secondary antibodies (IRDye 800CW goat anti-rabbit and IRDye 680LT goat anti-mouse) [1:10,000] were incubated in the dark at room temperature for 45 minutes.” left out, “(LI-COR). […]” for “(LI-COR).”"}, "[2]": {"tested_on": "FAK (Y397, Y576/577, Y925)", "assay": "Western blot of VEGF-induced FAK phosphorylation in REC", "conditions": "REC under VEGF; compound (II-4) 500 nM, SU6656 1 μM", "protocol": "as §1, with “Secondary antibodies (IRDye 800CW goat anti-rabbit and IRDye 680LT goat anti-mouse) [1:10,000] were incubated in the dark at room temperature for 45 minutes.” left out, “(LI-COR). […]” for “(LI-COR).”"}}}
{"smiles": "CN(C)S(=O)(=O)c1ccc2c(c1)/C(=C/c1cc3c([nH]1)CCCC3)C(=O)N2", "note": "[SU6656, reference compound]", "values": [{"measurement": "VEGF-induced PaxY118 phosphorylation (FIG. 20)", "setting": "paxillin (pY118)", "result": "inhibited"}, {"measurement": "VEGF-dependent ERK1/2 phosphorylation", "setting": "ERK1/2", "result": "Neither SU6656 nor compound (II-4) decreased"}, {"measurement": "VEGF-induced REC proliferation (FIG. 21)", "setting": "[1]", "result": "inhibited"}, {"measurement": "VEGF-induced activation of AKT (P-AKT Ser473)", "setting": "AKT (Ser473)", "result": "inhibited"}, {"measurement": "VEGF-induced FAK activation (Y397, Y925)", "setting": "[2]", "result": "inhibited"}]}
{"smiles": "N#CC(=C(/N)Sc1ccccc1N)/C(C#N)=C(\\N)Sc1ccccc1N", "note": "[U0126, reference compound]", "values": [{"measurement": "VEGF-induced PaxY118 phosphorylation (FIG. 20)", "setting": "paxillin (pY118)", "result": "no change in activation of Y118"}, {"measurement": "VEGF-induced REC proliferation (FIG. 21)", "setting": "[1]", "result": "VEGF-induced REC proliferation was inhibited"}]}
